tested on: CCRF-CEM; test: Growth inhibition of human CCRF-CEM cells assessed as cell growth at 10 uM incubated for 48 hrs by sulforhodamine B assay relative to control; type: functional; settings: read-out: Activity

Q: How did the growth at 10 µM turn out when `CCCCOc1nc2ccccc2cc1C1CNC(=O)c2ccccc2N1` (stereo not drawn) was run?
A: 12.6%

tested on: A549; test: Growth inhibition of human A549/ATCC cells assessed as cell growth at 10 uM incubated for 48 hrs by sulforhodamine B assay relative to control; type: functional; settings: A549, 48 h, read-out: Activity

Q: `CCCCOc1nc2ccccc2cc1C1CNC(=O)c2ccccc2N1` (stereo not drawn) was tested. Which growth at 10 µM did it give?
A: 19.9%

tested on: HOP-62; test: Growth inhibition of human HOP62 cells assessed as cell growth at 10 uM incubated for 48 hrs by sulforhodamine B assay relative to control; type: functional; settings: HOP-62, 48 h, read-out: Activity

Q: With `CCCCOc1nc2ccccc2cc1C1CNC(=O)c2ccccc2N1` (stereo not drawn) as the compound, how does the growth at 10 µM read?
A: 23%

tested on: HOP-92; test: Growth inhibition of human HOP92 cells assessed as cell growth at 10 uM incubated for 48 hrs by sulforhodamine B assay relative to control; type: functional; settings: HOP-92, 48 h, read-out: Activity

Q: For `CCCCOc1nc2ccccc2cc1C1CNC(=O)c2ccccc2N1` (stereo not drawn), which growth at 10 µM is on record?
A: 48.9%

tested on: NCI-H226; test: Growth inhibition of human NCI-H226 cells assessed as cell growth at 10 uM incubated for 48 hrs by sulforhodamine B assay relative to control; type: functional; settings: NCI-H226, 48 h, read-out: Activity

Q: `CCCCOc1nc2ccccc2cc1C1CNC(=O)c2ccccc2N1` (stereo not drawn) was tested. Which growth at 10 µM did it give?
A: 0.7%

tested on: NCI-H23; test: Growth inhibition of human NCI-H23 cells assessed as cell growth at 10 uM incubated for 48 hrs by sulforhodamine B assay relative to control; type: functional; settings: NCI-H23, 48 h, read-out: Activity

Q: With `CCCCOc1nc2ccccc2cc1C1CNC(=O)c2ccccc2N1` (stereo not drawn) as the compound, how does the growth at 10 µM read?
A: 23.8%

tested on: NCI-H322M; test: Growth inhibition of human NCI-H322M cells assessed as cell growth at 10 uM incubated for 48 hrs by sulforhodamine B assay relative to control; type: functional; settings: read-out: Activity

Q: For `CCCCOc1nc2ccccc2cc1C1CNC(=O)c2ccccc2N1` (stereo not drawn), which growth at 10 µM is on record?
A: 47.2%

tested on: NCI-H522; test: Growth inhibition of human NCI-H522 cells assessed as cell growth at 10 uM incubated for 48 hrs by sulforhodamine B assay relative to control; type: functional; settings: NCI-H522, 48 h, read-out: Activity

Q: Which growth at 10 µM does the source give for `CCCCOc1nc2ccccc2cc1C1CNC(=O)c2ccccc2N1` (stereo not drawn) here?
A: -13.6%

tested on: COLO 205; test: Growth inhibition of human COLO205 cells assessed as cell growth at 10 uM incubated for 48 hrs by sulforhodamine B assay relative to control; type: functional; settings: COLO 205, 48 h, read-out: Activity

Q: With `CCCCOc1nc2ccccc2cc1C1CNC(=O)c2ccccc2N1` (stereo not drawn) as the compound, how does the growth at 10 µM read?
A: 9.84%

tested on: HCT-116; test: Growth inhibition of human HCT116 cells assessed as cell growth at 10 uM incubated for 48 hrs by sulforhodamine B assay relative to control; type: functional; settings: HCT-116, 48 h, read-out: Activity

Q: For `CCCCOc1nc2ccccc2cc1C1CNC(=O)c2ccccc2N1` (stereo not drawn), which growth at 10 µM is on record?
A: 15.6%

tested on: HT-29; test: Growth inhibition of human HT-29 cells assessed as cell growth at 10 uM incubated for 48 hrs by sulforhodamine B assay relative to control; type: functional; settings: HT-29, 48 h, read-out: Activity

Q: How did the growth at 10 µM turn out when `CCCCOc1nc2ccccc2cc1C1CNC(=O)c2ccccc2N1` (stereo not drawn) was run?
A: 0.87%

tested on: KM12; test: Growth inhibition of human KM12 cells assessed as cell growth at 10 uM incubated for 48 hrs by sulforhodamine B assay relative to control; type: functional; settings: KM12, 48 h, read-out: Activity

Q: How did the growth at 10 µM turn out when `CCCCOc1nc2ccccc2cc1C1CNC(=O)c2ccccc2N1` (stereo not drawn) was run?
A: 23.9%

tested on: SW-620; test: Growth inhibition of human SW620 cells assessed as cell growth at 10 uM incubated for 48 hrs by sulforhodamine B assay relative to control; type: functional; settings: SW-620, 48 h, read-out: Activity

Q: `CCCCOc1nc2ccccc2cc1C1CNC(=O)c2ccccc2N1` (stereo not drawn) was tested. Which growth at 10 µM did it give?
A: 20.9%

tested on: SF-539; test: Growth inhibition of human SF539 cells assessed as cell growth at 10 uM incubated for 48 hrs by sulforhodamine B assay relative to control; type: functional; settings: SF-539, 48 h, read-out: Activity

Q: With `CCCCOc1nc2ccccc2cc1C1CNC(=O)c2ccccc2N1` (stereo not drawn) as the compound, how does the growth at 10 µM read?
A: -25.5%

tested on: SNB-19; test: Growth inhibition of human SNB19 cells assessed as cell growth at 10 uM incubated for 48 hrs by sulforhodamine B assay relative to control; type: functional; settings: SNB-19, 48 h, read-out: Activity

Q: With `CCCCOc1nc2ccccc2cc1C1CNC(=O)c2ccccc2N1` (stereo not drawn) as the compound, how does the growth at 10 µM read?
A: 33.4%

tested on: U-251; test: Growth inhibition of human U251 cells assessed as cell growth at 10 uM incubated for 48 hrs by sulforhodamine B assay relative to control; type: functional; settings: U-251, 48 h, read-out: Activity

Q: For `CCCCOc1nc2ccccc2cc1C1CNC(=O)c2ccccc2N1` (stereo not drawn), which growth at 10 µM is on record?
A: 18.6%

tested on: Malme-3M; test: Growth inhibition of human MALME-3M cells assessed as cell growth at 10 uM incubated for 48 hrs by sulforhodamine B assay relative to control; type: functional; settings: read-out: Activity

Q: For `CCCCOc1nc2ccccc2cc1C1CNC(=O)c2ccccc2N1` (stereo not drawn), which growth at 10 µM is on record?
A: 45.6%

tested on: SK-MEL-28; test: Growth inhibition of human SK-MEL-28 cells assessed as cell growth at 10 uM incubated for 48 hrs by sulforhodamine B assay relative to control; type: functional; settings: SK-MEL-28, 48 h, read-out: Activity

Q: For `CCCCOc1nc2ccccc2cc1C1CNC(=O)c2ccccc2N1` (stereo not drawn), which growth at 10 µM is on record?
A: 45.8%

tested on: UACC-62; test: Growth inhibition of human UACC62 cells assessed as cell growth at 10 uM incubated for 48 hrs by sulforhodamine B assay relative to control; type: functional; settings: UACC-62, 48 h, read-out: Activity

Q: Which growth at 10 µM does the source give for `CCCCOc1nc2ccccc2cc1C1CNC(=O)c2ccccc2N1` (stereo not drawn) here?
A: 32.6%

tested on: OVCAR-3; test: Growth inhibition of human OVCAR3 cells assessed as cell growth at 10 uM incubated for 48 hrs by sulforhodamine B assay relative to control; type: functional; settings: OVCAR-3, 48 h, read-out: Activity

Q: How did the growth at 10 µM turn out when `CCCCOc1nc2ccccc2cc1C1CNC(=O)c2ccccc2N1` (stereo not drawn) was run?
A: -9.73%

tested on: OVCAR-4; test: Growth inhibition of human OVCAR4 cells assessed as cell growth at 10 uM incubated for 48 hrs by sulforhodamine B assay relative to control; type: functional; settings: OVCAR-4, 48 h, read-out: Activity

Q: For `CCCCOc1nc2ccccc2cc1C1CNC(=O)c2ccccc2N1` (stereo not drawn), which growth at 10 µM is on record?
A: 47.7%

tested on: OVCAR-5; test: Growth inhibition of human OVCAR5 cells assessed as cell growth at 10 uM incubated for 48 hrs by sulforhodamine B assay relative to control; type: functional; settings: OVCAR-5, 48 h, read-out: Activity

Q: With `CCCCOc1nc2ccccc2cc1C1CNC(=O)c2ccccc2N1` (stereo not drawn) as the compound, how does the growth at 10 µM read?
A: 55.3%

tested on: OVCAR-8; test: Growth inhibition of human OVCAR8 cells assessed as cell growth at 10 uM incubated for 48 hrs by sulforhodamine B assay relative to control; type: functional; settings: OVCAR-8, 48 h, read-out: Activity

Q: With `CCCCOc1nc2ccccc2cc1C1CNC(=O)c2ccccc2N1` (stereo not drawn) as the compound, how does the growth at 10 µM read?
A: 22.4%

tested on: NCI/ADR-RES; test: Growth inhibition of human NCI/ADR-RES cells assessed as cell growth at 10 uM incubated for 48 hrs by sulforhodamine B assay relative to control; type: functional; settings: read-out: Activity

Q: Which growth at 10 µM does the source give for `CCCCOc1nc2ccccc2cc1C1CNC(=O)c2ccccc2N1` (stereo not drawn) here?
A: 3.84%

tested on: SK-OV-3; test: Growth inhibition of human SKOV3 cells assessed as cell growth at 10 uM incubated for 48 hrs by sulforhodamine B assay relative to control; type: functional; settings: SK-OV-3, 48 h, read-out: Activity

Q: Which growth at 10 µM does the source give for `CCCCOc1nc2ccccc2cc1C1CNC(=O)c2ccccc2N1` (stereo not drawn) here?
A: 14.8%

tested on: A498; test: Growth inhibition of human A498 cells assessed as cell growth at 10 uM incubated for 48 hrs by sulforhodamine B assay relative to control; type: functional; settings: A498, 48 h, read-out: Activity

Q: Which growth at 10 µM does the source give for `CCCCOc1nc2ccccc2cc1C1CNC(=O)c2ccccc2N1` (stereo not drawn) here?
A: -11.2%

tested on: ACHN; test: Growth inhibition of human ACHN cells assessed as cell growth at 10 uM incubated for 48 hrs by sulforhodamine B assay relative to control; type: functional; settings: read-out: Activity

Q: Which growth at 10 µM does the source give for `CCCCOc1nc2ccccc2cc1C1CNC(=O)c2ccccc2N1` (stereo not drawn) here?
A: 46.7%

tested on: RXF 393; test: Growth inhibition of human RXF393 cells assessed as cell growth at 10 uM incubated for 48 hrs by sulforhodamine B assay relative to control; type: functional; settings: RXF 393, 48 h, read-out: Activity

Q: `CCCCOc1nc2ccccc2cc1C1CNC(=O)c2ccccc2N1` (stereo not drawn) was tested. Which growth at 10 µM did it give?
A: -14.3%

tested on: SN12C; test: Growth inhibition of human SN12C cells assessed as cell growth at 10 uM incubated for 48 hrs by sulforhodamine B assay relative to control; type: functional; settings: read-out: Activity

Q: Which growth at 10 µM does the source give for `CCCCOc1nc2ccccc2cc1C1CNC(=O)c2ccccc2N1` (stereo not drawn) here?
A: 44.1%

tested on: TK-10; test: Growth inhibition of human TK10 cells assessed as cell growth at 10 uM incubated for 48 hrs by sulforhodamine B assay relative to control; type: functional; settings: TK-10, 48 h, read-out: Activity

Q: For `CCCCOc1nc2ccccc2cc1C1CNC(=O)c2ccccc2N1` (stereo not drawn), which growth at 10 µM is on record?
A: 34.3%

tested on: UO-31; test: Growth inhibition of human UO31 cells assessed as cell growth at 10 uM incubated for 48 hrs by sulforhodamine B assay relative to control; type: functional; settings: UO-31, 48 h, read-out: Activity

Q: How did the growth at 10 µM turn out when `CCCCOc1nc2ccccc2cc1C1CNC(=O)c2ccccc2N1` (stereo not drawn) was run?
A: 41.3%

tested on: T47D; test: Growth inhibition of human T47D cells assessed as cell growth at 10 uM incubated for 48 hrs by sulforhodamine B assay relative to control; type: functional; settings: read-out: Activity

Q: With `CCCCOc1nc2ccccc2cc1C1CNC(=O)c2ccccc2N1` (stereo not drawn) as the compound, how does the growth at 10 µM read?
A: 20.9%

tested on: MDA-MB-468; test: Growth inhibition of human MDA-MB-468 cells assessed as cell growth at 10 uM incubated for 48 hrs by sulforhodamine B assay relative to control; type: functional; settings: MDA-MB-468, 48 h, read-out: Activity

Q: Which growth at 10 µM does the source give for `CCCCOc1nc2ccccc2cc1C1CNC(=O)c2ccccc2N1` (stereo not drawn) here?
A: -1.81%
